Key:
[1] = target: Integrin alpha-IIb/beta-3 (Homo sapiens, UniProt P05106+P08514); assay: Inhibition of alpha IIb beta-3 integrin binding to fibrinogen; assay type: protein-complex assay
Integrin alpha-V/beta-3 = Integrin alpha-V/beta-3 (Homo sapiens, UniProt P05106+P06756); assay: Inhibition of Vitronectin receptor (alpha V beta 3) binding to vitronectin
Sequence of Integrin alpha-V/beta-3 (P05106 27-788 limits assumed): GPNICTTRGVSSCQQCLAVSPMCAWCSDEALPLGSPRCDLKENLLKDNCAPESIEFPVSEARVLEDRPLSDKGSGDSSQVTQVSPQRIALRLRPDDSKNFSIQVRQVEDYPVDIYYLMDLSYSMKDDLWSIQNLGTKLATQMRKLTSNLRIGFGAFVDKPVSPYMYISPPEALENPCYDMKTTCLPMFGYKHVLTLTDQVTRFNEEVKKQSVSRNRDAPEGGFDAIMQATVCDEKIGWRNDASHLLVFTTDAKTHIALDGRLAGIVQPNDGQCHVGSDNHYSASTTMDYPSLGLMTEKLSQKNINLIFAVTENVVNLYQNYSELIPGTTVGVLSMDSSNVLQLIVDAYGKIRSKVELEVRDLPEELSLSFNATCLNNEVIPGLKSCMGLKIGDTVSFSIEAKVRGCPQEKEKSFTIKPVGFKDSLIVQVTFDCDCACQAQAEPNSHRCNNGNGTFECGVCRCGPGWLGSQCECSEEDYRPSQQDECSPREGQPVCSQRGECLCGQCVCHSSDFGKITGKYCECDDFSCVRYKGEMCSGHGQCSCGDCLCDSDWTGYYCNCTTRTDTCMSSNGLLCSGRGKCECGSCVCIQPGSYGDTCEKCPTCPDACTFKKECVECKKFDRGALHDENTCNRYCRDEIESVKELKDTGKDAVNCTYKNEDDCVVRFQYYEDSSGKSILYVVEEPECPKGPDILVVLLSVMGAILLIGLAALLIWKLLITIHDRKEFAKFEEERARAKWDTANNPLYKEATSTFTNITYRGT
Sequence of Integrin alpha-V/beta-3 (P06756 31-889 limits assumed): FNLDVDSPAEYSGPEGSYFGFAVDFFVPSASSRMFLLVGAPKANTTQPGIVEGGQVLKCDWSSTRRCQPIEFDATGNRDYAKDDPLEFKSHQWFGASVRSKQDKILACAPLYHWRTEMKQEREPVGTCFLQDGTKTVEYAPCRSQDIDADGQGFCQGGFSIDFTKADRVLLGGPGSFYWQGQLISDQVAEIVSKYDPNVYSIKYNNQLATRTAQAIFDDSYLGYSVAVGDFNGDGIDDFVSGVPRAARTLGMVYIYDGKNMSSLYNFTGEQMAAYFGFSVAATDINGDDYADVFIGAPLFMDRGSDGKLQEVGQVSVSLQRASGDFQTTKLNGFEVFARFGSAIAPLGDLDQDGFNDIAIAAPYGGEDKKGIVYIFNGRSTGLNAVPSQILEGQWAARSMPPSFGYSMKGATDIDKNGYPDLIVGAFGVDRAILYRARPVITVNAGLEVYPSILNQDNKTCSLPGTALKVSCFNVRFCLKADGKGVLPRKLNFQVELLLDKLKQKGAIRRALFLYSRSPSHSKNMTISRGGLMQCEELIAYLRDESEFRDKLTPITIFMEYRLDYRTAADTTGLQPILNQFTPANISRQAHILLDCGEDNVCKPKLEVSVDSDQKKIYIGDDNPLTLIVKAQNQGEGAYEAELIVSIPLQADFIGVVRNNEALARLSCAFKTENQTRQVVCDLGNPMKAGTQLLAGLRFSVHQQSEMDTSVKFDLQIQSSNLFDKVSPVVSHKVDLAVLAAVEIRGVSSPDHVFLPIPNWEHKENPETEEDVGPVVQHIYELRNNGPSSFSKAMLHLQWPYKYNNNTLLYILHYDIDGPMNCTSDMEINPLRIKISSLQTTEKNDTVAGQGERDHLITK
Sequence of Integrin alpha-V/beta-3 (P06756 891-1048 limits assumed): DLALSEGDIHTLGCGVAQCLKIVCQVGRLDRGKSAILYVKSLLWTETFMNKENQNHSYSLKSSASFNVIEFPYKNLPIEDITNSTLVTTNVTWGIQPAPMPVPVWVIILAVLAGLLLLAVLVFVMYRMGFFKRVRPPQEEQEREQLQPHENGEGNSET

Sequence of Integrin alpha-IIb/beta-3 (P05106 27-788 limits assumed): as the sequence (P05106 27-788 limits assumed) above
Sequence of Integrin alpha-IIb/beta-3 (P08514 32-887 limits assumed): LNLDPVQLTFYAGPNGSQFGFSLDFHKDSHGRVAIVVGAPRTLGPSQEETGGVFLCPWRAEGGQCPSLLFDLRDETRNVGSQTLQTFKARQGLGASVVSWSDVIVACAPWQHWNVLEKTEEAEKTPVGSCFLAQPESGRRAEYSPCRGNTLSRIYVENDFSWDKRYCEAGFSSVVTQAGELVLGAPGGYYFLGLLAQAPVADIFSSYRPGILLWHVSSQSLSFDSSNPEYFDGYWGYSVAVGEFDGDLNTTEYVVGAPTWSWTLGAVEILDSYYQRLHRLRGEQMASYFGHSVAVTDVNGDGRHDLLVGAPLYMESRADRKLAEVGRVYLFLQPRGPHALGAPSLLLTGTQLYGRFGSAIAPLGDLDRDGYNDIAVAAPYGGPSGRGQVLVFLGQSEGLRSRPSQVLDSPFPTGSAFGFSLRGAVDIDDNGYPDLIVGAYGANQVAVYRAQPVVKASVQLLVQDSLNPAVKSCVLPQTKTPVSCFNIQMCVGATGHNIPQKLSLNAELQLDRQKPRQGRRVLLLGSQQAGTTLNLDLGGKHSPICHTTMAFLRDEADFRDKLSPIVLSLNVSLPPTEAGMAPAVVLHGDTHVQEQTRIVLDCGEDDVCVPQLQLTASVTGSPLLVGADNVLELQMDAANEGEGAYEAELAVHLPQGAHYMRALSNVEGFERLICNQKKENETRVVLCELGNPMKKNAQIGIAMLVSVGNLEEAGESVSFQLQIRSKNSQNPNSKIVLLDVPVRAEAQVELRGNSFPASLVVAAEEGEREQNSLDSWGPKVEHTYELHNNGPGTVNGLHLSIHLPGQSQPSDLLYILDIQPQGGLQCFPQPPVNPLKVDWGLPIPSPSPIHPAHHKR
Sequence of Integrin alpha-IIb/beta-3 (P08514 891-1039 limits assumed): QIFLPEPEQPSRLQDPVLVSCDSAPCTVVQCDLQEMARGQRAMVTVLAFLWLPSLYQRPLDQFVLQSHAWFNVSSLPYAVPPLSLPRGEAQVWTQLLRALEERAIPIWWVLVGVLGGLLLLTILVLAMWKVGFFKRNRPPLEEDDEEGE

- IC50 [1]: 1700 nM
- IC50 (Integrin alpha-V/beta-3): 210 nM
SMILES: NCCCC[C@H](NC(=O)[C@@H]1CCCN1C(=O)[C@H](CO)NC(=O)[C@H](CC(=O)O)NC(=O)CNC(=O)[C@H](CCCN=C(N)N)NC(=O)CN)C(=O)O
